tested on: Leishmania donovani; experiment: In vitro leishmanicidal activity against promastigotes of Leishmania donovani at 100 ug/ml concentration; format: functional

SMILES	Leishmanicidal activity (% promastigotes killed) [%]
CCn1c(=O)c2cc(OC)ccc2n2c(CCl)nnc12	67
Cn1c(=O)c2ccc(Cl)cc2n2c(CSC3=NCCN3)nnc12	35
Cn1c(=O)c2ccc(Cl)cc2n2c(CCl)nnc12	95
Cn1c(=O)c2ccc(Cl)cc2n2c(S)nnc12	55
CCn1c(=O)c2cc(OC)ccc2n2cnnc12	39
CCn1c(=O)c2ccc(Cl)cc2n2c(C)nnc12	49
CCOC(=O)c1c(SC)nn(-c2nc3cc(Cl)ccc3c(=O)n2C)c1N	0
CCn1c(=O)c2ccc(Cl)cc2n2c(CCl)nnc12	70
CCOC(=O)c1c(SC)nn(-c2nc3cc(Cl)ccc3c(=O)n2CC)c1N	0
Cn1c(=O)c2ccc(Cl)cc2n2cnnc12	81
CCn1c(=O)c2cc(OC)ccc2n2c(S)nnc12	80
CCn1c(=O)c2ccc(Cl)cc2n2c(CSC3=NCCN3)nnc12	24
CCn1c(=S)[nH]c2ccc(OC)cc2c1=O	12
CCn1c(SCc2nnc3n(CC)c(=O)c4ccc(Cl)cc4n23)nc2ccc(OC)cc2c1=O	0
CSc1nc2cc(Cl)ccc2c(=O)n1C	0
CCn1c(=O)c2ccc(Cl)cc2n2cnnc12	19
CCn1c(=O)c2cc(OC)ccc2n2c(C)nnc12	42
CCn1c(SCc2nnc3n(C)c(=O)c4ccc(Cl)cc4n23)nc2ccc(OC)cc2c1=O	10
CCn1c(=O)c2ccc(Cl)cc2n2c(S)nnc12	30
CCn1c(NN)nc2ccc(OC)cc2c1=O	0
